The values below come from EP2149558A1, “5-[(3,3,3-Trifluoro-2-hydroxy-1-arylpropyl)amino-1-arylquinolin-2-ones, a process for their production and their use as anti-inflammatory agents” (Bayer Schering Pharma Aktiengesellschaft, priority 2008, dated 2010).

The test system of the experiment is secretion of cytokine IL-8 into the human monocyte cell line THP-1. Description: inhibition of LPS-triggered IL-8 secretion in THP-1 cells (ELISA of supernatant). Format: cell-based. How it is done: As an essential, molecular mechanism for the anti-inflammatory action of glucocorticoids, the GR-mediated inhibition of the transcription of cytokines, adhesion molecules, enzymes and other pro-inflammatory factors is considered. This inhibition is produced by an interaction of the GR with other transcription factors, e.g., AP-1 and NF-kappa-B (for a survey, see Cato, A. C. B., and Wade, E., BioEssays 18, 371-378, 1996).
The concentration of the cytokines was determined in the supernatant by means of commercially available ELISA kits.

pIC50: −log10 of the molar value.

For `COCC(O)(C(Nc1cc(F)cc2c1ccc(=O)n2-c1ccc(F)nc1)c1ccc(OC)c(F)c1Cl)C(F)(F)F` (centres unmarked) [Example 2, 5-{[1-(2-Chloro-3-fluoro-4-methoxyphenyl)-3,3,3-trifluoro-2-hydroxy-2-(methoxymethyl)propyl]amino}-7-fluoro-1-(6-fluoropyridin-3-yl)-1H-quinolin-2-one], the pIC50 (Homo sapiens, inhibition of LPS-triggered IL-8 secretion, THP-1 cells, read-out: IC50(IL8)) was 9.51. Where the note is “IL-8 inhibition, in comparison with dexamethasone as reference”, the efficacy amounted to 107%.
